Experimental findings from ChEMBL document CHEMBL5096171, “Synthesis and Biological Evaluation of PSMA Ligands with Aromatic Residues and Fluorescent Conjugates Based on Them” (J Med Chem, 2021) are described below.

Usually inhibition stands for how much of the control response was suppressed. As a reminder, the solubility is the concentration that dissolves in the medium under given conditions. A low value points to little dissolved substance. The term CC50 denotes the concentration giving 50% cytotoxicity. By logD is commonly meant the decadic logarithm of the distribution of all forms, ionised or not, between an organic phase and buffer at a given pH. A higher logD goes with a more lipophilic compound. One may read the Ki as a measure of affinity in units of concentration, obtained from inhibition or displacement. One may read the IC50 as the concentration at which inhibition is half-maximal.

The target in data set [1] is T1, Glutamate carboxypeptidase 2 (Homo sapiens, UniProt Q04609). The data set is described as follows: Inhibition of PMSA in human PC-3 cells assessed as increase in fluorescent signal upto 100 nM incubated for 1 hr by flow cytometry (reference value: 1.14%). In kind it is cell-based. (In general: Flow cytometry measures light scatter and fluorescence of single cells or particles in a stream.)
Target sequence in this assay (Q04609 whole entry, looked up): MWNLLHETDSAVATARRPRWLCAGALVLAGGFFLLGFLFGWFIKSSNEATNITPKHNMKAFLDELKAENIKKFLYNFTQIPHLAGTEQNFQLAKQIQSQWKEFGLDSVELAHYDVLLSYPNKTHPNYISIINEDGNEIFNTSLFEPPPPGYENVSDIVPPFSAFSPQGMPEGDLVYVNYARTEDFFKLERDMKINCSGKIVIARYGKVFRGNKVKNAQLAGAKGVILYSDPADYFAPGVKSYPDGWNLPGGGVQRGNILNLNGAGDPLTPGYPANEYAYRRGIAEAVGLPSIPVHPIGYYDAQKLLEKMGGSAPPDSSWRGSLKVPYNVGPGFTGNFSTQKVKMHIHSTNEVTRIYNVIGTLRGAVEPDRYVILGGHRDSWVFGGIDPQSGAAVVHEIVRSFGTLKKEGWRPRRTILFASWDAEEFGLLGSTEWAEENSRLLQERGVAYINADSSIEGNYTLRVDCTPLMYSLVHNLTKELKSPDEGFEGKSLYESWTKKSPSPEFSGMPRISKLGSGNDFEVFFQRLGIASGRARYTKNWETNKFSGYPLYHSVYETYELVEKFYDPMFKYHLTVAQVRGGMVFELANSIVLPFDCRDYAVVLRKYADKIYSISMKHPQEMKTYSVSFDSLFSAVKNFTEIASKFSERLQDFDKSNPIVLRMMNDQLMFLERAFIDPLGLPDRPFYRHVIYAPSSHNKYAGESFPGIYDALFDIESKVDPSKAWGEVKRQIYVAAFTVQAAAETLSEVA

The nature of data set [2]: Drug localisation in human LNCaP cells assessed as increase in fluorescent signal at 100 nM incubated for 2 hrs by Hoechst 33342 staining based fluorescence microscopy. In kind it is ADME, cell-based. The following applies: 0.1 µM.
A short description of data set [3]: Water solubility of the compound. In kind it is physicochemical.
A short description of data set [4]: Drug uptake in bloodstream of Balb/c nude mouse xenografted with human 22Rv1 cells at 0.449 mg/kg, IT administered as single dose measured after 24 hrs. The following applies: in vivo, other. In kind it is ADME, organism-based, Blood, CWR22R.
Data set [5] has as its target T1, Glutamate carboxypeptidase 2. The data set is described as follows: Inhibition of PMSA in human 22Rv1 cells assessed as increase in fluorescent signal upto 100 nM incubated for 1 hr by flow cytometry (reference value: 2.97%). In kind it is cell-based.
Target sequence in this assay (Q04609 whole entry, looked up): as above
The subject of another data set is LNCaP. The data set is described as follows: Cytotoxicity against human LNCaP cells assessed as reduction in cell viability incubated for 5 days by MTT assay. In kind it is functional. The note with it: 120 h, time 5 day. (In general: Tetrazolium assays rely on reduction of a dye to a coloured formazan, in cell work by metabolically active cells.)
Data set [6] is described as follows: Drug uptake in human 22Rv1 cells assessed as decrease in drug accumulation incubated for 1 hr in presence of (3S,7S,25S,28S)-33-Azido-25-benzyl-12-(3-chlorobenzyl)-28-(4-hydroxybenzyl)-5,13,20,23,26,29-hexaoxo-4,6,12,19,24,27,30-heptaazatritriacontane-1,3,7-tricarboxylic acid by flow cytometry. In kind it is ADME, cell-based. The following applies: cwr22r.
Data set [7] is described as follows: Drug excretion in […] at 0.449 mg/kg, IT administered as single dose measured after 24 hrs. In kind it is ADME, organism-based, CWR22R. The note with it: in vivo, other.
The nature of data set [8]: n-Octanol/aqueous buffer distribution coefficient, log D of compound at pH 6.4 by shake flask method. In kind it is physicochemical.
For data set [9], the target named is T1, Glutamate carboxypeptidase 2. The data set is described as follows: Inhibition of PMSA in human LNCaP cells assessed as increase in fluorescent signal upto 100 nM incubated for 1 hr by flow cytometry (reference value: 2.11%). In kind it is cell-based.
Target sequence in this assay (Q04609 whole entry, looked up): as above
In a further data set the test system is PC-3. The data set is described as follows: Cytotoxicity against human PC-3 cells assessed as reduction in cell viability incubated for 5 days by MTT assay. In kind it is functional. The following applies: PC-3, 120 h, time 5 day.
Data set [10] addresses T1, Glutamate carboxypeptidase 2. Put plainly: Inhibition of PSMA derived from human LNCaP cell lysate assessed as inhibition of NAAG hydrolysis incubated for 2 hrs in presence of NAAG by Amplex Red assay. In kind it is subcellular.
Target sequence in this assay (Q04609 whole entry): as the sequence (Q04609 whole entry, looked up) above
The nature of data set [11]: Drug uptake in human PC-3 cells xenografted in Balb/c nude mouse assessed as amount of fluorescence intensity at 0.449 mg/kg, IT administered as single dose measured after 24 hrs by IVIS Spectrum CT analysis. In kind it is ADME, organism-based. The following applies: in vivo, other. For orientation: A xenograft is tissue or cells of one species grown in another, often human tumour cells in immunodeficient mice.

The nature of data set [12]: Drug uptake in human PC-3 cells assessed as decrease in drug accumulation incubated for 1 hr in presence of (3S,7S,25S,28S)-33-Azido-25-benzyl-12-(3-chlorobenzyl)-28-(4-hydroxybenzyl)-5,13,20,23,26,29-hexaoxo-4,6,12,19,24,27,30-heptaazatritriacontane-1,3,7-tricarboxylic acid by flow cytometry. In kind it is ADME, cell-based. The following applies: pc-3, 1 h.
The nature of data set [13]: Drug uptake in human LNCaP cells assessed as fold decrease in drug accumulation incubated for 1 hr in presence of (3S,7S,25S,28S)-33-Azido-25-benzyl-12-(3-chlorobenzyl)-28-(4-hydroxybenzyl)-5,13,20,23,26,29-hexaoxo-4,6,12,19,24,27,30-heptaazatritriacontane-1,3,7-tricarboxylic acid by flow cytometry. In kind it is ADME, cell-based.
Data set [14] can be described thus: Drug excretion in Balb/c nude mouse xenografted with human 22Rv1 cells assessed as non-specifically bound drug at 0.449 mg/kg, IT administered as single dose measured after 24 hrs. In kind it is ADME, organism-based, CWR22R. The note with it: in vivo, other.
Data set [15] can be described thus: Drug uptake in skin capillary of Balb/c nude mouse xenografted with human 22Rv1 cells at 0.449 mg/kg, IT administered as single dose measured after 24 hrs. The note with it: in vivo, other. In kind it is ADME, organism-based, Skin of body, CWR22R.
A short description of data set [16]: Drug uptake in human 22Rv1 cells xenografted in Balb/c nude mouse assessed as amount of fluorescence intensity at 0.449 mg/kg, IT administered as single dose measured after 24 hrs by IVIS Spectrum CT analysis. The note with it: in vivo, other. In kind it is ADME, organism-based, CWR22R.
Data set [17] can be described thus: Chronic toxicity in Soviet Chinchilla rabbit assessed as change in kidney histology at 120 to 243 mg/kg, iv administered once every 3 weeks. In kind it is organism-based, Oryctolagus cuniculus. The note with it: in vivo, 504 h, dose 120-243 mg/kg.
Data set [18] can be described thus: Chronic toxicity in Soviet Chinchilla rabbit assessed as change in lung histology at 120 to 243 mg/kg, iv administered once every 3 weeks. In kind it is organism-based, Oryctolagus cuniculus. The following applies: in vivo, 504 h, dose 120-243 mg/kg.
The nature of data set [19]: Chronic toxicity in Soviet Chinchilla rabbit assessed as change in heart histology at 120 to 243 mg/kg, iv administered once every 3 weeks. In kind it is organism-based, Oryctolagus cuniculus. The following applies: in vivo, 504 h, dose 120-243 mg/kg.
The nature of data set [20]: Chronic toxicity in Soviet Chinchilla rabbit assessed as change in blood albumin content at 120 to 243 mg/kg, iv administered once every 3 weeks. In kind it is organism-based, Oryctolagus cuniculus. The following applies: in vivo, 504 h, dose 120-243 mg/kg.
Data set [21] can be described thus: Chronic toxicity in Soviet Chinchilla rabbit assessed as signs of intoxication at 120 to 243 mg/kg, iv administered once every 3 weeks. In kind it is organism-based, Oryctolagus cuniculus. The following applies: in vivo, 504 h, dose 120-243 mg/kg.
Data set [22] is described as follows: Chronic toxicity in Soviet Chinchilla rabbit assessed as change in brain histology at 120 to 243 mg/kg, iv administered once every 3 weeks. In kind it is organism-based, Oryctolagus cuniculus. The following applies: in vivo, 504 h, dose 120-243 mg/kg.
Data set [23] can be described thus: Chronic toxicity in Soviet Chinchilla rabbit assessed as change in liver histology at 120 to 243 mg/kg, iv administered once every 3 weeks. In kind it is organism-based, Oryctolagus cuniculus. The following applies: in vivo, 504 h, dose 120-243 mg/kg.
Data set [24] in a line: Chronic toxicity in Soviet Chinchilla rabbit assessed as change in spleen histology at 120 to 243 mg/kg, iv administered once every 3 weeks. The note with it: in vivo, 504 h, dose 120-243 mg/kg. In kind it is organism-based, Oryctolagus cuniculus.
Data set [25] is described as follows: Drug uptake in human 22Rv1 cells assessed as drug accumulation by measuring fluorescence signal at 4 uM incubated for 30 mins by flow cytometry. The note with it: cwr22r, 0.5 h. In kind it is ADME, cell-based.
The nature of data set [26]: Drug uptake in human LNCaP cells assessed as decrease in drug accumulation incubated for 1 hr in presence of (3S,7S,25S,28S)-33-Azido-25-benzyl-12-(3-chlorobenzyl)-28-(4-hydroxybenzyl)-5,13,20,23,26,29-hexaoxo-4,6,12,19,24,27,30-heptaazatritriacontane-1,3,7-tricarboxylic acid by flow cytometry. In kind it is ADME, cell-based.
The nature of data set [27]: Drug uptake in human LNCaP cells assessed as drug accumulation by measuring fluorescence signal at 4 uM incubated for 30 mins by flow cytometry. The note with it: 0.5 h. In kind it is ADME, cell-based.
Data set [28] is described as follows: Drug uptake in human PC-3 cells assessed as drug accumulation by measuring fluorescence signal at 4 uM incubated for 30 mins by flow cytometry. In kind it is ADME, cell-based. The following applies: pc-3, 0.5 h.
The nature of data set [29]: Cytotoxicity against human WI-38 VA13 cells assessed as cell growth inhibition incubated for 5 days by MTT assay. In kind it is toxicity, cell-based. The note with it: time 5 day.
Data set [30] can be described thus: Cytotoxicity against HEK293T cells assessed as cell growth inhibition incubated for 5 days by MTT assay. In kind it is toxicity, cell-based, HEK-293T. The following applies: human, time 5 day.
In the next data set the test system is A549. Put plainly: Cytotoxicity against human A549 cells assessed as cell growth inhibition incubated for 5 days by MTT assay. In kind it is functional. The note with it: A549, 120 h, time 5 day.
The next data set has as its system MCF7. Put plainly: Cytotoxicity against human MCF7 cells assessed as cell growth inhibition incubated for 5 days by MTT assay. In kind it is functional. The following applies: MCF7, 120 h, time 5 day.

In brackets after ≈: the same amount, converted by molar mass.

`CN1/C(=C/C=C/C=C/C2=[N+](CCCCCC(=O)NCc3cn(CCCNC(=O)[C@H](Cc4ccc(O)cc4)NC(=O)[C@H](Cc4ccccc4)NC(=O)CCC(=O)NCCCCCC(=O)N(CCCC[C@H](NC(=O)N[C@@H](CCC(=O)O)C(=O)O)C(=O)O)Cc4cccc(Cl)c4)nn3)c3ccc(S(=O)(=O)[O-])cc3C2(C)C)C(C)(C)c2cc(S(=O)(=O)O)ccc21`: the values for the inhibition in data set [1], in data set [5] and in [9] were 2.79%, 35.3% and 95%, respectively. Further, the Drug uptake result in data set [2], in data set [4], in data set [6], in data set [12] and in data set [15] was “Active” throughout. The compound further showed a solubility in data set [3] of 7 mg/mL (≈ 4.05 mM). For the same compound, the CC50 in the data set with LNCaP and in the data set with PC-3 was above 100 µM in each case. In addition, the Drug excretion result in data set [7] and in data set [14] was “Active” throughout. The compound further came in with a logD in [8] of -1.2. Also, the Ki in data set [10] was found to be 0.0026 µM. Also, the Activity in [11] and in [16] was 1.5 10^9(p/s)(uW/cm^2) throughout. Besides, the “fold change (FC)” value in [13] came to 4.1.

`CN1/C(=C/C=C2C=C(/C=C/C3=[N+](CCCCCC(=O)O)c4ccc(S(=O)(=O)[O-])cc4C3(C)C)CCC/2)C(C)(C)c2cc(S(=O)(=O)O)ccc21`: the Activity entry in data set [17] is “Non-Toxic”; in [18], “Non-Toxic”; in [19] it was “Non-Toxic”; in data set [20], “Toxic”; in data set [21], “Non-Toxic”; in [22] it was “Non-Toxic”. Also, the Activity entry in data set [23] and in data set [24] was “Non-Toxic” each time. The CC50 in the data set with LNCaP and with PC-3 was above 100 µM throughout.

For the compound `O=C(O)CC[C@H](NC(=O)N[C@@H](CCCCN(Cc1cccc(Cl)c1)C(=O)CCCCCNC(=O)CCC(=O)N[C@@H](Cc1ccccc1)C(=O)N[C@@H](Cc1ccc(O)cc1)C(=O)NCCCn1cc(CNC(=O)c2cccc3c2C(=O)OC32c3ccc(O)cc3Oc3cc(O)ccc32)nn1)C(=O)O)C(=O)O`, the Drug uptake in data set [25] is 14.4%; in [6] it was “Active”; in data set [26], “Active”; in data set [27], 83.8%; in data set [12] it was “Active”; in [28], 7.6%.

Turning to `[N-]=[N+]=NCCCNC(=O)[C@H](Cc1ccc(O)cc1)NC(=O)[C@H](Cc1ccccc1)NC(=O)CCC(=O)NCCCCCC(=O)N(CCCC[C@H](NC(=O)N[C@@H](CCC(=O)O)C(=O)O)C(=O)O)Cc1cccc(Cl)c1`, the CC50 at 120 h in data set [29] and in data set [30] was above 100 µM in each case. Further, the CC50 in the data set on LNCaP, with A549, in the data set with MCF7 and in the data set on PC-3 was above 100 µM throughout. The IC50 in data set [10] was determined as 0.003 µM. The Ki in data set [10] is 0.001 µM.

With `CN1/C(=C/C=C/C=C/C2=[N+](CCCCCC(=O)O)c3ccc(S(=O)(=O)[O-])cc3C2(C)C)C(C)(C)c2cc(S(=O)(=O)O)ccc21`, the Drug uptake is 57.5% in [25], 98.4% in [27] and 41.1% in data set [28]. The CC50 in the data set on LNCaP and in the data set with PC-3 was above 100 µM in each case.
